Data published in PubChem BioAssay AID250 (DTP/NCI, 2004).
Inconclusive results and toxic doses are left out.

Experiments:
[1] = tested on: BDF1 mice, L1210 leukemia sc, survival T/C; assay: NCI In Vivo Anticancer Drug Screen. Data for tumor model L1210 Leukemia (subcutaneous) in B6D2F1 (BDF1) mice; conditions: endpoint: median survival time, vehicle: water, higher = longer survival
In short: (§1)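 Expressed as T/C: measurement in compound-treated, tumor-bearing mice relative to vehicle-treated control mice, based on survival or tumor size.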

[2] = tested on: BDF1 mice, L1210 leukemia sc; assay: as above; conditions: endpoint: mean tumor weight, vehicle: water, higher = larger tumour
In short: as §1

[3] = dose: 67.0 mg/kg/injection, schedule: Q#B X027 (ip)
[4] = dose: 133.0 mg/kg/injection, schedule: Q#B X027 (ip)
[5] = dose: 200.0 mg/kg/injection, schedule: Q01DX009 (ip)
[6] = dose: 200.0 mg/kg/injection, schedule: Q#B X027 (ip)
[7] = dose: 267.0 mg/kg/injection, schedule: Q#B X027 (ip)

O=C(NO)c1ccncc1
T/C [1, 3]: 108 % of control
T/C [1, 4]: 108 % of control
T/C [1, 5]: 108 % of control
T/C [1, 6]: 116 % of control
T/C [1, 7]: 108 % of control
T/C [2, 3]: 68 % of control
T/C [2, 4]: 58 % of control
T/C [2, 5]: 60 % of control
T/C [2, 6]: 57 % of control
T/C [2, 7]: 41 % of control

CC[n+]1ccc(Nc2ccc(NC(=O)c3ccc(Nc4cc[n+](CC)c5ccc(N)cc45)cc3)cc2)cc1
T/C ([1]; dose: 0.5 mg/kg/injection, schedule: Q01DX009 (sc)): 100 % of control
T/C ([1]; dose: 0.5 mg/kg/injection, schedule: Q03HX024 (ip)): 122 % of control
T/C ([1]; dose: 1.0 mg/kg/injection, schedule: Q01DX009 (ip)): 172 % of control
T/C ([1]; dose: 1.0 mg/kg/injection, schedule: Q01DX009 (sc)): 105 % of control
T/C ([1]; dose: 1.0 mg/kg/injection, schedule: Q03HX024 (ip)): 177 % of control
T/C ([1]; dose: 1.0 mg/kg/injection, schedule: Q03HX024 (sc)): 115 % of control
T/C ([1]; dose: 2.0 mg/kg/injection, schedule: Q01DX009 (ip)): 172 % of control
T/C ([1]; dose: 2.0 mg/kg/injection, schedule: Q03HX008 (sc)): 120 % of control
T/C ([1]; dose: 2.0 mg/kg/injection, schedule: Q03HX024 (ip)): 200 % of control
T/C ([1]; dose: 2.0 mg/kg/injection, schedule: Q03HX024 (sc)): 160 % of control
T/C ([1]; dose: 2.0 mg/kg/injection, schedule: Q04DX003 (sc)): 100 % of control
T/C ([1]; dose: 4.0 mg/kg/injection, schedule: Q01DX001 (sc)): 110 % of control
T/C ([1]; dose: 4.0 mg/kg/injection, schedule: Q01DX009 (ip)): 122 % of control
T/C ([1]; dose: 4.0 mg/kg/injection, schedule: Q01DX009 (sc)): 210 % of control
T/C ([1]; dose: 4.0 mg/kg/injection, schedule: Q03HX024 (sc)): 190 % of control
T/C ([1]; dose: 4.0 mg/kg/injection, schedule: Q04DX003 (sc)): 115 % of control
T/C ([1]; dose: 8.0 mg/kg/injection, schedule: Q01DX001 (sc)): 110 % of control
T/C ([1]; dose: 8.0 mg/kg/injection, schedule: Q01DX009 (ip)): 111 % of control
T/C ([1]; dose: 8.0 mg/kg/injection, schedule: Q01DX009 (sc)): 170 % of control
T/C ([1]; dose: 8.0 mg/kg/injection, schedule: Q03HX008 (sc)): 185 % of control
T/C ([1]; dose: 8.0 mg/kg/injection, schedule: Q03HX024 (ip)): 111 % of control
T/C ([1]; dose: 16.0 mg/kg/injection, schedule: Q04DX003 (sc)): 165 % of control
